Laboratory results: PubChem BioAssay AID248 (DTP/NCI, 2004)
Several values for one entry are separate records, joined by “and”; a condition that tells them apart may be missing. Identical values can stand only once. Toxic doses and inconclusive results are not listed.

Tested on: L1210 leukemia ip in BDF1 mice, survival T/C
Assay: NCI In Vivo Anticancer Drug Screen. Data for tumor model L1210 Leukemia (intraperitoneal) in B6D2F1 (BDF1) mice
Conditions: endpoint: mean survival time, higher = longer survival
How it was run: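 Read-out is survival time, reported as the treated-group measurement over the vehicle-control measurement.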

[1] = dose: 75.0 mg/kg/injection, schedule: Q01DX001 (ip), vehicle: saline
[2] = dose: 150.0 mg/kg/injection, schedule: Q01DX001 (ip), vehicle: saline
[3] = dose: 300.0 mg/kg/injection, schedule: Q01DX001 (ip), vehicle: saline
[4] = dose: 100.0 mg/kg/injection, schedule: Q01DX001 (ip), vehicle: saline
[5] = dose: 200.0 mg/kg/injection, schedule: Q01DX001 (ip), vehicle: saline
[6] = dose: 400.0 mg/kg/injection, schedule: Q01DX001 (ip), vehicle: saline
[7] = dose: 200.0 mg/kg/injection, schedule: Q04DX003 (ip), vehicle: Klucel (hydroxypropylcellulose) (HPC)
[8] = dose: 400.0 mg/kg/injection, schedule: Q04DX003 (ip), vehicle: Klucel (hydroxypropylcellulose) (HPC)
[9] = dose: 12.5 mg/kg/injection, schedule: Q01DX001 (ip), vehicle: saline
[10] = dose: 25.0 mg/kg/injection, schedule: Q01DX001 (ip), vehicle: saline
[11] = dose: 50.0 mg/kg/injection, schedule: Q01DX001 (ip), vehicle: saline
[12] = dose: 100.0 mg/kg/injection, schedule: Q01DX009 (ip), vehicle: saline with Tween-80
[13] = dose: 100.0 mg/kg/injection, schedule: Q01DX009 (ip), vehicle: Klucel (hydroxypropylcellulose) (HPC)
[14] = dose: 200.0 mg/kg/injection, schedule: Q01DX009 (ip), vehicle: Klucel (hydroxypropylcellulose) (HPC)
[15] = dose: 400.0 mg/kg/injection, schedule: Q01DX009 (ip), vehicle: Klucel (hydroxypropylcellulose) (HPC)
[16] = dose: 12.5 mg/kg/injection, schedule: Q01DX009 (ip), vehicle: saline
[17] = dose: 25.0 mg/kg/injection, schedule: Q01DX009 (ip), vehicle: saline
[18] = dose: 50.0 mg/kg/injection, schedule: Q01DX009 (ip), vehicle: saline
[19] = dose: 100.0 mg/kg/injection, schedule: Q04DX003 (ip), vehicle: Klucel (hydroxypropylcellulose) (HPC)
[20] = dose: 200.0 mg/kg/injection, schedule: Q01DX009 (ip), vehicle: saline sonified
[21] = dose: 100.0 mg/kg/injection, schedule: Q04DX002 (ip), vehicle: saline with Tween-80
[22] = dose: 200.0 mg/kg/injection, schedule: Q04DX002 (ip), vehicle: saline with Tween-80
[23] = dose: 400.0 mg/kg/injection, schedule: Q04DX002 (ip), vehicle: saline with Tween-80
[24] = dose: 6.25 mg/kg/injection, schedule: Q01DX009 (ip), vehicle: saline

CCCCNC(=NC)c1ccc(NC(=O)c2ccc(C(=O)Nc3ccc(C(=NC)NCCCC)cc3)cc2)cc1
T/C (dose: 4.4 mg/kg/injection, schedule: Q01DX Z (ip), vehicle: saline): 112 % of control | T/C (dose: 6.6 mg/kg/injection, schedule: Q01DX Z (ip), vehicle: saline): 120 % of control

CC(C)(c1ccccc1)C(C(=O)O)C(=O)O
T/C [1]: 98 % of control | T/C [2]: 98 % of control | T/C [3]: 102 % of control

CC1(C)CNC(=O)O1
T/C [4]: 108 % of control | T/C [5]: 111 % of control | T/C [6]: 100 % of control

c1ccc(OC2COC(Oc3ccccc3)CO2)cc1 (stereo not drawn)
T/C [4]: 97 % of control | T/C (dose: 100.0 mg/kg/injection, schedule: Q01DX009 (ip), vehicle: acetone): 97 % of control | T/C (dose: 100.0 mg/kg/injection, schedule: Q04DX003 (ip), vehicle: saline): 103 % of control | T/C [5]: 87 % of control | T/C (dose: 200.0 mg/kg/injection, schedule: Q01DX009 (ip), vehicle: acetone): 92 % of control | T/C (dose: 200.0 mg/kg/injection, schedule: Q04DX003 (ip), vehicle: saline): 97 % of control | T/C [6]: 90 % of control | T/C (dose: 400.0 mg/kg/injection, schedule: Q01DX009 (ip), vehicle: acetone): 87 % of control | T/C (dose: 400.0 mg/kg/injection, schedule: Q04DX003 (ip), vehicle: saline): 95 % of control

O=C1c2cc([N+](=O)[O-])ccc2-c2cc(Cl)c(Cl)cc21
T/C [7]: 91 % of control | T/C [8]: 94 % of control

CC1(C)Oc2[nH]c(=O)n(-c3ccccc3)c(=O)c2C1c1ccc(Cl)cc1 (stereo not drawn)
T/C [9]: 94 % of control | T/C (dose: 12.5 mg/kg/injection, schedule: Q04DX003 (ip), vehicle: acetone): 103 % of control | T/C [10]: 97 % of control | T/C (dose: 25.0 mg/kg/injection, schedule: Q04DX003 (ip), vehicle: acetone): 86 % of control | T/C (dose: 35.0 mg/kg/injection, schedule: Q01DX009 (ip), vehicle: saline): 94 % of control | T/C [11]: 92 % of control | T/C (dose: 55.0 mg/kg/injection, schedule: Q01DX009 (ip), vehicle: saline): 96 % of control | T/C (dose: 80.0 mg/kg/injection, schedule: Q01DX009 (ip), vehicle: saline): 106 % of control

COc1ccc(OC)c(/C=C/c2cccn[n+]2C)c1
T/C (dose: 50.0 mg/kg/injection, schedule: Q01DX009 (ip), vehicle: saline with Tween-80): 101 % of control | T/C [12]: 114 % of control

Cc1ccc(NC(=O)/C=C/c2ccccc2)cc1Cl
T/C [13]: 95 % of control | T/C [14]: 98 % of control | T/C [15]: 104 % of control

CNC(=O)ON=C(C)C
T/C [1]: 102 % of control | T/C (dose: 75.0 mg/kg/injection, schedule: Q01DX009 (ip), vehicle: saline): 99 % of control | T/C [2]: 102 % of control | T/C (dose: 150.0 mg/kg/injection, schedule: Q01DX009 (ip), vehicle: saline): 94 % of control | T/C [3]: 109 % of control | T/C (dose: 300.0 mg/kg/injection, schedule: Q01DX009 (ip), vehicle: saline): 108 % of control

CCCCOC(=O)c1ccc(NC(=O)Nc2cc(Cl)ccc2OC)cc1
T/C [13]: 98 % of control | T/C [14]: 98 % of control | T/C [15]: 90 % of control

CC(C)c1ccc(/C=N/NC(=O)C[n+]2ccccc2)cc1
T/C [16]: 100 % of control | T/C [17]: 105 % of control | T/C [18]: 94 % of control

CCCCCCCCCCCCCCCCS(=O)(=O)c1ccc(S(=O)(=O)F)cc1NC(C)=O
T/C [19]: 91 % of control | T/C [20]: 93 % of control | T/C [7]: 94 % of control | T/C [8]: 91 % of control

NC1c2ccccc2CC1C(=O)O (stereo not drawn)
T/C [4]: 95 % of control | T/C [5]: 97 % of control

CCCCCS(=O)(=O)N(CC)CC
T/C [21]: 96 % of control | T/C [22]: 96 % of control | T/C [23]: 89 % of control

Nc1cc(NC(=O)c2ccc(Cl)cc2)ccc1S(=O)(=O)O
T/C [21]: 104 % of control | T/C [22]: 93 % of control | T/C [23]: 93 % of control

O=C(O)Cc1ccc2c(c1)OCO2.[Ag]
T/C (dose: 9.38 mg/kg/injection, schedule: Q01DX001 (ip), vehicle: steriod suspending solution): 95 % of control | T/C (dose: 18.75 mg/kg/injection, schedule: Q01DX001 (ip), vehicle: steriod suspending solution): 94 % of control | T/C (dose: 37.5 mg/kg/injection, schedule: Q01DX001 (ip), vehicle: steriod suspending solution): 92 % of control

C1CN(P2(N3CC3)=NP(N3CC3)(N3CC3)=NP(N3CC3)(N3CC3)=N2)CCO1 (stereo not drawn)
T/C [24]: 116 % of control and 119 % of control | T/C [16]: 120 % of control | T/C [10]: 114 % of control and 119 % of control | T/C [17]: 156 % of control and 164 % of control | T/C [18]: 99 % of control and 104 % of control and 87 % of control | T/C [4]: 181 % of control and 185 % of control | T/C [5]: 89 % of control

CCCC(=O)OCC
T/C [13]: 100 % of control | T/C [14]: 105 % of control | T/C [15]: 97 % of control

Cc1c2cccc(Sc3ccccc3)c2c2c3c(cccc13)[S+](c1ccccc1)C2 (stereo not drawn)
T/C (dose: 1.56 mg/kg/injection, schedule: Q01DX009 (ip), vehicle: saline): 104 % of control | T/C (dose: 3.12 mg/kg/injection, schedule: Q01DX009 (ip), vehicle: saline): 101 % of control | T/C [24]: 105 % of control | T/C (dose: 12.5 mg/kg/injection, schedule: Q01DX001 (ip), vehicle: saline with Tween-80): 97 % of control | T/C [9]: 100 % of control | T/C [16]: 91 % of control | T/C [10]: 93 % of control | T/C (dose: 50.0 mg/kg/injection, schedule: Q01DX001 (ip), vehicle: saline with Tween-80): 95 % of control | T/C [11]: 86 % of control

CCCCCCCCCCCCC/C=N/Nc1nnc(N/N=C/CCCCCCCCCCCCC)c2ccccc12
T/C [11]: 106 % of control | T/C [4]: 106 % of control | T/C [5]: 109 % of control | T/C [6]: 118 % of control

COc1ccc(NC(=O)CCc2ccc(N3C(N)=NC(N)=NC3(C)C)cc2)cc1S(=O)(=O)F
T/C (dose: 50.0 mg/kg/injection, schedule: Q01DX001 (ip), vehicle: Klucel (hydroxypropylcellulose) (HPC)): 95 % of control | T/C (dose: 100.0 mg/kg/injection, schedule: Q01DX001 (ip), vehicle: Klucel (hydroxypropylcellulose) (HPC)): 106 % of control | T/C (dose: 200.0 mg/kg/injection, schedule: Q01DX001 (ip), vehicle: Klucel (hydroxypropylcellulose) (HPC)): 98 % of control

Nc1ncnc2c(C(=O)O)c[nH]c12
T/C (dose: 100.0 mg/kg/injection, schedule: Q01DX001 (ip), vehicle: other): 98 % of control | T/C (dose: 200.0 mg/kg/injection, schedule: Q01DX001 (ip), vehicle: other): 110 % of control | T/C (dose: 400.0 mg/kg/injection, schedule: Q01DX001 (ip), vehicle: other): 111 % of control

C[C@@H]1CC[C@@]2(NC1)O[C@H]1C[C@H]3[C@@H]4CC=C5C[C@@H](O)CC[C@]5(C)[C@H]4CC[C@]3(C)[C@H]1[C@@H]2C
T/C (dose: 5.0 mg/kg/injection, schedule: Q01DX Z (sc), vehicle: steriod suspending solution): 91 % of control | T/C (dose: 10.0 mg/kg/injection, schedule: Q01DX Z (sc), vehicle: steriod suspending solution): 100 % of control | T/C (dose: 20.0 mg/kg/injection, schedule: Q01DX Z (sc), vehicle: steriod suspending solution): 96 % of control | T/C (dose: 40.0 mg/kg/injection, schedule: Q01DX Z (sc), vehicle: steriod suspending solution): 98 % of control | T/C (dose: 50.0 mg/kg/injection, schedule: Q01DX009 (ip), vehicle: saline sonified): 95 % of control | T/C (dose: 100.0 mg/kg/injection, schedule: Q01DX009 (ip), vehicle: saline sonified): 94 % of control | T/C [19]: 94 % of control | T/C [20]: 90 % of control | T/C [7]: 99 % of control

c1ccc(-n2nc3c(c2OCCN2CCCC2)CCCc2ccccc2-3)cc1
T/C [12]: 104 % of control
